Results from PMC8881512 (Nature Communications, 2022).
Several values for one entry are separate records, joined by “and”; a condition that tells them apart may be missing. Identical values can stand only once.

What was measured:
NEK11 = target: T1, NEK11 (Homo sapiens, UniProt Q8NG66); assay: Kinome profiling; type: biochemical; conditions: VT02956 (5 nM), read-out: % enzymatic activity relative to DMSO controls
T1 construct: LATS1/LATS2 enzymes from Signalchem

PKA = target: T2, PKA (Homo sapiens, UniProt P17612); assay: Kinome profiling; type: biochemical; conditions: VT02956 (5 nM), read-out: % enzymatic activity relative to DMSO controls
T2 construct: LATS1/LATS2 enzymes from Signalchem

MCF-7 cells = assay: Cell proliferation by cell counting, MCF-7; type: cell-based, human; conditions: for Cell proliferation normalised to DMSO treated WT cells: 4 days, Fig.6c
Experimental: Cell proliferation rates were determined by automated cell counter. In brief, cells were plated at density of 0.1 million cells per well in six-well plate. Cell numbers were counted by the indicated time point as stated in the figure legends.

BLK = target: T3, BLK (Homo sapiens, UniProt P51451); assay: Kinome profiling; type: biochemical; conditions: VT02956 (5 nM), read-out: % enzymatic activity relative to DMSO controls
T3 construct: LATS1/LATS2 enzymes from Signalchem
T3 sequence (P51451 whole entry): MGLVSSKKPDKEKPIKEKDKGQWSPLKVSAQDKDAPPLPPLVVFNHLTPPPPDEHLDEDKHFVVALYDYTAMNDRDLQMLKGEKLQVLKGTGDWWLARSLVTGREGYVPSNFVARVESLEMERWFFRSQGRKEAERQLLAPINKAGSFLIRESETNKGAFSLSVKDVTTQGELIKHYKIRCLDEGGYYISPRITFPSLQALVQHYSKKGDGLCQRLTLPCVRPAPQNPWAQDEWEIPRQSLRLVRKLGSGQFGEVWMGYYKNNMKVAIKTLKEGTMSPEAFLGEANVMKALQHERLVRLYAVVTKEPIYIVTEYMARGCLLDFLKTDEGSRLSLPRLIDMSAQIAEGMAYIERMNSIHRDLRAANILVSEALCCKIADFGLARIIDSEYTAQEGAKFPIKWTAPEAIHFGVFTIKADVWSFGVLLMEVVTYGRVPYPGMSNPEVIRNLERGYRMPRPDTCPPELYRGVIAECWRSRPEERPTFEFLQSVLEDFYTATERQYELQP

PKAcg = target: T4, PKAcg (Homo sapiens, UniProt P22612); assay: Kinome profiling; type: biochemical; conditions: VT02956 (5 nM), read-out: % enzymatic activity relative to DMSO controls
T4 construct: LATS1/LATS2 enzymes from Signalchem

p70S6Kb/RPS6KB2 = target: T5, p70S6Kb/RPS6KB2 (Homo sapiens, UniProt Q9UBS0); assay: Kinome profiling; type: biochemical; conditions: VT02956 (5 nM), read-out: % enzymatic activity relative to DMSO controls
T5 construct: LATS1/LATS2 enzymes from Signalchem

MSK2/RPS6KA4 = target: T6, MSK2/RPS6KA4 (Homo sapiens, UniProt O75676); assay: Kinome profiling; type: biochemical; conditions: VT02956 (5 nM), read-out: % enzymatic activity relative to DMSO controls
T6 construct: LATS1/LATS2 enzymes from Signalchem

STK38L/NDR2 = target: T7, STK38L/NDR2 (Homo sapiens, UniProt Q9Y2H1); assay: Kinome profiling; type: biochemical; conditions: VT02956 (5 nM), read-out: % enzymatic activity relative to DMSO controls
T7 construct: LATS1/LATS2 enzymes from Signalchem
T7 sequence (Q9Y2H1 whole entry): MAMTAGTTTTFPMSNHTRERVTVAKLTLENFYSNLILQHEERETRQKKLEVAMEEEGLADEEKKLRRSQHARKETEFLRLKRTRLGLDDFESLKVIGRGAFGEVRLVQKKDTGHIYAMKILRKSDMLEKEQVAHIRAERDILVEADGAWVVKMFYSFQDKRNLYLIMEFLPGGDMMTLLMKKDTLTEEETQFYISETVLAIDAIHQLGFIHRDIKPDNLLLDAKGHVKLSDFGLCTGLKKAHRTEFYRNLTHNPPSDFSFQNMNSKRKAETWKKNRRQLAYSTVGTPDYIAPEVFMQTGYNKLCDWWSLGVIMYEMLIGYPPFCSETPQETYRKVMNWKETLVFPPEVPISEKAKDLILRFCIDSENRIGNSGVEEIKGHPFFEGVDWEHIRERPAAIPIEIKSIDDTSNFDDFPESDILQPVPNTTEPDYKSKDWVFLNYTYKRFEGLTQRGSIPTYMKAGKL

LATS1 = target: T8, LATS1 (Homo sapiens, UniProt O95835); assay: Kinome profiling; type: biochemical; conditions: VT02956 (5 nM)
T8 construct: purchased Signalchem
T8 sequence (O95835 1-1130): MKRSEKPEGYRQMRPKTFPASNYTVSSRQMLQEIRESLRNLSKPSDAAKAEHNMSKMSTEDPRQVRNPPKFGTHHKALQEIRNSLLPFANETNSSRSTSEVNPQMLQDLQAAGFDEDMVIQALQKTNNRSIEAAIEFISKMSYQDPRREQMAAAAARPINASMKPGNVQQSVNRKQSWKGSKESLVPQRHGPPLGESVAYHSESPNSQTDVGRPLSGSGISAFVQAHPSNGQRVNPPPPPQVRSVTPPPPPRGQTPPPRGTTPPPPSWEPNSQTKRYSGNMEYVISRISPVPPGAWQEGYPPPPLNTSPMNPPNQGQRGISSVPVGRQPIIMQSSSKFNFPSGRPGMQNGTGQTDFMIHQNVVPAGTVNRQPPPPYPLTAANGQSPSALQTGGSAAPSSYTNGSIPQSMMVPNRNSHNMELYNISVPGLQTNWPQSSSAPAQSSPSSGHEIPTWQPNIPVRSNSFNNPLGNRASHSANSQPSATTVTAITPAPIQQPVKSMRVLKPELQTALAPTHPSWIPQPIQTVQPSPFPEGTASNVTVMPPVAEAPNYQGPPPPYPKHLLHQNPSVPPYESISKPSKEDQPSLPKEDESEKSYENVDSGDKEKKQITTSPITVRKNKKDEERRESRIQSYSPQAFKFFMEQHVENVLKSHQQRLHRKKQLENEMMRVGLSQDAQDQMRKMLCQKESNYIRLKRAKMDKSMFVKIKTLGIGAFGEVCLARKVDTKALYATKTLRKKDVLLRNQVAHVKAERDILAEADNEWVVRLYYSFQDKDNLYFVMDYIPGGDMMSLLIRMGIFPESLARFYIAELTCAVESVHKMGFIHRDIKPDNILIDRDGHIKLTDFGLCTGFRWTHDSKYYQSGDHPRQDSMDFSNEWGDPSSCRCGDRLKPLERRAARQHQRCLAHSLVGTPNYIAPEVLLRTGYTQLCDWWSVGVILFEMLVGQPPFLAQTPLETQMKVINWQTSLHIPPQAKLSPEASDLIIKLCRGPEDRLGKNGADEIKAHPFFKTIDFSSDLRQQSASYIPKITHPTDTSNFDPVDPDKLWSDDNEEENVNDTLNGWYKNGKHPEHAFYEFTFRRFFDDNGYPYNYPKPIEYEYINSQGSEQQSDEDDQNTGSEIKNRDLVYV

p70S6K/RPS6KB1 = target: T9, p70S6K/RPS6KB1 (Homo sapiens, UniProt P23443); assay: Kinome profiling; type: biochemical; conditions: VT02956 (5 nM), read-out: % enzymatic activity relative to DMSO controls
T9 construct: LATS1/LATS2 enzymes from Signalchem
T9 sequence (P23443 whole entry): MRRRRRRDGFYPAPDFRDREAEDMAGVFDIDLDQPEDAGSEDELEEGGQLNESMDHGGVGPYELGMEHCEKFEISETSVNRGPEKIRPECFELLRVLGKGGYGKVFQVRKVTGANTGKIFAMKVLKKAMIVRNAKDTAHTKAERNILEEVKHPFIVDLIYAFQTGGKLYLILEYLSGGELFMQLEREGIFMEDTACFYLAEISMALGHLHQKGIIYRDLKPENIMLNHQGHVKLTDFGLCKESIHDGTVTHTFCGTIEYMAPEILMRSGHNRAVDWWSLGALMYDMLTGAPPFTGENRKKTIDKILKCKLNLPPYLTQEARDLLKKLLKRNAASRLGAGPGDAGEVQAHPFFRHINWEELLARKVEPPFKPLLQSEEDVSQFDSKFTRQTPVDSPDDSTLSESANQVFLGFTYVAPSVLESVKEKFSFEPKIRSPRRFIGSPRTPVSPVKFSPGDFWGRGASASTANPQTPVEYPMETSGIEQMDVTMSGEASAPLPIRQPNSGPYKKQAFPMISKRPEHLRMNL

MUSK = target: T10, MUSK (Homo sapiens, UniProt O15146); assay: Kinome profiling; type: biochemical; conditions: VT02956 (5 nM), read-out: % enzymatic activity relative to DMSO controls
T10 construct: LATS1/LATS2 enzymes from Signalchem
T10 sequence (O15146 24-869): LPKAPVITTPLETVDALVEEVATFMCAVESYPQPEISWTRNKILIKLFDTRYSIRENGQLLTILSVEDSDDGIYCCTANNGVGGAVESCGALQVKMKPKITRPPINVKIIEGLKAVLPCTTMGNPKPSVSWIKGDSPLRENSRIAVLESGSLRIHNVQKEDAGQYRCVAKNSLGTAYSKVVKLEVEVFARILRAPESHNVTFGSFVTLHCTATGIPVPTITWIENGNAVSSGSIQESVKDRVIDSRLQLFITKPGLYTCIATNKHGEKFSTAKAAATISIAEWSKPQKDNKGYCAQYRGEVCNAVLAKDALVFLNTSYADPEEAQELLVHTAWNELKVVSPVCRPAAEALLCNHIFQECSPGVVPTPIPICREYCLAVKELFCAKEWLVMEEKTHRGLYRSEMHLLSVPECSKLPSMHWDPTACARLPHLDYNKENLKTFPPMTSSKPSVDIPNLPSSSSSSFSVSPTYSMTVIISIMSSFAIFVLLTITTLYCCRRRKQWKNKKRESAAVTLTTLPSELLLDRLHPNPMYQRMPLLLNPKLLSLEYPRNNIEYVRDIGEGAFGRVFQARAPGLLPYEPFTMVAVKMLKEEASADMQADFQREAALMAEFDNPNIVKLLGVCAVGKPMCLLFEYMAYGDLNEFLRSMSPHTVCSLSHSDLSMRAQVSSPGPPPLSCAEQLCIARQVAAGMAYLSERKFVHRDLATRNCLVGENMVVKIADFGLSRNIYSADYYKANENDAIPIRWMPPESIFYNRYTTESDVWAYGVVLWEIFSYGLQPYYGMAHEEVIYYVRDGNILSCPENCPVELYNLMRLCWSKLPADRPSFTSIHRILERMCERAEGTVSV

JAK1 = target: T11, JAK1 (Homo sapiens, UniProt P23458); assay: Kinome profiling; type: biochemical; conditions: VT02956 (5 nM)
T11 construct: LATS1/LATS2 enzymes from Signalchem

CDK9/cyclin T2 = target: T12, CDK9/cyclin T2 (Homo sapiens, UniProt P50750); assay: Kinome profiling; type: biochemical; conditions: VT02956 (5 nM), read-out: % enzymatic activity relative to DMSO controls
T12 construct: LATS1/LATS2 enzymes from Signalchem

AKT1 = target: T13, AKT1 (Homo sapiens, UniProt P31749); assay: Kinome profiling; type: biochemical; conditions: VT02956 (5 nM)
T13 construct: LATS1/LATS2 enzymes from Signalchem
T13 sequence (P31749 whole entry): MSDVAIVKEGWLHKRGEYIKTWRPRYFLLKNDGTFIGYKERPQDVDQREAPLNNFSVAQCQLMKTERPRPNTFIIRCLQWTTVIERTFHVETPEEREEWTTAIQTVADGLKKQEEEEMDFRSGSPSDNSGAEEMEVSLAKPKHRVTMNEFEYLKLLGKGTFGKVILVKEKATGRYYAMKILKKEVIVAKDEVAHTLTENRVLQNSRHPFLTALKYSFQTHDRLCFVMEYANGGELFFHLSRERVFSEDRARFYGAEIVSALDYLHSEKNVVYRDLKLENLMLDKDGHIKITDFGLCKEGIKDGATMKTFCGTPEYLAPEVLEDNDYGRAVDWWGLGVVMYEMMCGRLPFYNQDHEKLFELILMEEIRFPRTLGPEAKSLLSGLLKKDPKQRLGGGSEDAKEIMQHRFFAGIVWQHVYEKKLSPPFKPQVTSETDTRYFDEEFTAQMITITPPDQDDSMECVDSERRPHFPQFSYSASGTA

PKMYT1 = target: T14, PKMYT1 (Homo sapiens, UniProt Q99640); assay: Kinome profiling; type: biochemical; conditions: VT02956 (5 nM)
T14 construct: LATS1/LATS2 enzymes from Signalchem

CAMKK1 = target: T15, CAMKK1 (Homo sapiens, UniProt Q8N5S9); assay: Kinome profiling; type: biochemical; conditions: VT02956 (5 nM), read-out: % enzymatic activity relative to DMSO controls
T15 construct: LATS1/LATS2 enzymes from Signalchem

HGK/MAP4K4 = target: T16, HGK/MAP4K4 (Homo sapiens, UniProt O95819); assay: Kinome profiling; type: biochemical; conditions: VT02956 (5 nM), read-out: % enzymatic activity relative to DMSO controls
T16 construct: LATS1/LATS2 enzymes from Signalchem

TYK2 = target: T17, TYK2 (Homo sapiens, UniProt P29597); assay: Kinome profiling; type: biochemical; conditions: VT02956 (5 nM)
T17 construct: LATS1/LATS2 enzymes from Signalchem
T17 sequence (P29597 whole entry): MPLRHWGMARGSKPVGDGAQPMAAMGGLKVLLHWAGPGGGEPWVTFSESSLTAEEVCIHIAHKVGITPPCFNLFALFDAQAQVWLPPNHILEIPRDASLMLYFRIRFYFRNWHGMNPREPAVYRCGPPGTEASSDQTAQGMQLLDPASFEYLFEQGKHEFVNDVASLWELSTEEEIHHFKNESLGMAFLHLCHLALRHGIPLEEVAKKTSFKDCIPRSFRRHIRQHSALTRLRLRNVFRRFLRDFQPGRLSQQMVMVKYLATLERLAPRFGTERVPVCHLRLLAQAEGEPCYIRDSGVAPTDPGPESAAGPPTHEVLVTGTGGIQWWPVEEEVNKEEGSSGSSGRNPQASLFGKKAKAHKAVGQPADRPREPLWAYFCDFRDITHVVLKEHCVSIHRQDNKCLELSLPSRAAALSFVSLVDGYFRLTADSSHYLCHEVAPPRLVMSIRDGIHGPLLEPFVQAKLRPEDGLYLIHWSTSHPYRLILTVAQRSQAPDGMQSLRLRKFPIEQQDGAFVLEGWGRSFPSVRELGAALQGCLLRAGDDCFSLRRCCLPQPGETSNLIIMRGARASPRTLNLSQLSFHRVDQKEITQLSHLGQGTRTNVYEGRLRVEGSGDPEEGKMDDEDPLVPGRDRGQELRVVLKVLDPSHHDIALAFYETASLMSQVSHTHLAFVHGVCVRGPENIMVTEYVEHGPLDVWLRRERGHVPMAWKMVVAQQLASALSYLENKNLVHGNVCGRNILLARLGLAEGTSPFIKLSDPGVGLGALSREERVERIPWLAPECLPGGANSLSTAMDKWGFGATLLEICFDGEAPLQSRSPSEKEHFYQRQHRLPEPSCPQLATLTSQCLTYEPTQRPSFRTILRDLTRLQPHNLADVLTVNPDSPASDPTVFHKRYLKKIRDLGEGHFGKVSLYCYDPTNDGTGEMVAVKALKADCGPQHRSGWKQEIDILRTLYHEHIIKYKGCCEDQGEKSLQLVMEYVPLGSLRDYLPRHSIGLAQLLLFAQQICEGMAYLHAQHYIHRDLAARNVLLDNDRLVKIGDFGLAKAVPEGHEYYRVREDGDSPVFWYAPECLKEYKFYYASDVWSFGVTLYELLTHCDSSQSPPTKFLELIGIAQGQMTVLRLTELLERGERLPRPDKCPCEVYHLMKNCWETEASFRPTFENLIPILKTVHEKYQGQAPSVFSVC

IKKb/IKBKB = target: T18, IKKb/IKBKB (Homo sapiens, UniProt O14920); assay: Kinome profiling; type: biochemical; conditions: VT02956 (5 nM), read-out: % enzymatic activity relative to DMSO controls
T18 construct: LATS1/LATS2 enzymes from Signalchem

PKN3/PRK3 = target: T19, PKN3/PRK3 (Homo sapiens, UniProt Q6P5Z2); assay: Kinome profiling; type: biochemical; conditions: VT02956 (5 nM)
T19 construct: LATS1/LATS2 enzymes from Signalchem

[1] = system: ERα, YAP/TAZ phosphorylation in MCF-7 cells; assay: Immunoblot analysis, MCF-7 cells; type: cell-based, human; conditions: MCF-7; 0.1, 0.5 and 2 μM for 2 days; Fig. 5f
SNRK = target: T20, SNRK (Homo sapiens, UniProt Q9NRH2); assay: Kinome profiling; type: biochemical; conditions: VT02956 (5 nM), read-out: % enzymatic activity relative to DMSO controls
T20 construct: LATS1/LATS2 enzymes from Signalchem

FER = target: T21, FER (Homo sapiens, UniProt P16591); assay: Kinome profiling; type: biochemical; conditions: VT02956 (5 nM), read-out: % enzymatic activity relative to DMSO controls
T21 construct: LATS1/LATS2 enzymes from Signalchem
T21 sequence (P16591 whole entry): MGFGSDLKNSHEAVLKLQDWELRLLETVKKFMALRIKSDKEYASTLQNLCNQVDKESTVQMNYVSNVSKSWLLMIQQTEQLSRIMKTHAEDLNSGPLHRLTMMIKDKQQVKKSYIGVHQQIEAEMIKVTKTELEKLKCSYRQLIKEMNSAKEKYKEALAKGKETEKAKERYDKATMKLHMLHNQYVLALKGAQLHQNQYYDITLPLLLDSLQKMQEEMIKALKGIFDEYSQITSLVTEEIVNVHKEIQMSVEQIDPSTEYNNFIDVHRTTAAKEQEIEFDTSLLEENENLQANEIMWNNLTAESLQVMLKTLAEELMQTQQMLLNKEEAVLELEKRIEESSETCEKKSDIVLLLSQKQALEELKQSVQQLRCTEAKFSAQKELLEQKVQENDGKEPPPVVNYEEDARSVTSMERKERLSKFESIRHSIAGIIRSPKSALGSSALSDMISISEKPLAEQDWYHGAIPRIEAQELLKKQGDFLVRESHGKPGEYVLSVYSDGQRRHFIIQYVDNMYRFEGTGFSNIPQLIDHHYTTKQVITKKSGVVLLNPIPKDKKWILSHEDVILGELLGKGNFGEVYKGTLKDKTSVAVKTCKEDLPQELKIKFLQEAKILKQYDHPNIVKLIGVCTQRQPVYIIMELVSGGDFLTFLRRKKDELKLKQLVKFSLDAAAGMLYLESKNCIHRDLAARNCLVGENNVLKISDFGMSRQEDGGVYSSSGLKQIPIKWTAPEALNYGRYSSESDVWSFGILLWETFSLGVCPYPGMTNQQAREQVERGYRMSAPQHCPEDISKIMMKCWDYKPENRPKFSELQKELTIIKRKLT

4T1 cells = assay: Cell viability, 4T1; type: cell-based

Q: Which results are given for `NCC1CCN(c2nc(-c3ccncc3)nc3c(C#CCO)cccc23)CC1` [VT02956]?
A: remaining activity at 0.005 µM (NEK11): 82%; remaining activity at 0.005 µM (PKA): 68%; MCF-7 proliferation (MCF-7 cells; 0.5 µM or 2 µM, 4-day time course, Supplementary Fig. 8a, b): inhibited the proliferation of MCF-7 and T47D cells; Cell proliferation normalised to DMSO treated WT cells (MCF-7 cells; MCF-7 LATS1/2 dKO, VT02956 0.5 uM): 31.2704 and 24.43 and 25.4072; Cell proliferation normalised to DMSO treated WT cells (MCF-7 cells; MCF-7 LATS1/2 dKO, VT02956 2 uM): 23.4528 and 26.3844 and 21.4984; Cell proliferation normalised to DMSO treated WT cells (MCF-7 cells; MCF-7 WT, VT02956 0.5 uM): 76.2215 and 83.0619 and 85.9935; Cell proliferation normalised to DMSO treated WT cells (MCF-7 cells; MCF-7 WT, VT02956 2 uM): 41.0423 and 42.0195; Cell proliferation normalised to DMSO treated WT cells (MCF-7 cells; MCF-7 YAP/TAZ dKO, VT02956 0.5 uM): 94.7883 and 88.9251 and 92.8339; Cell proliferation normalised to DMSO treated WT cells (MCF-7 cells; MCF-7 YAP/TAZ dKO, VT02956 2 uM): 84.0391 and 80.1303 and 85.0163; remaining activity at 0.005 µM (BLK): 78%; remaining activity at 0.005 µM (PKAcg): 28%; remaining activity at 0.005 µM (p70S6Kb/RPS6KB2): 65%; remaining activity at 0.005 µM (MSK2/RPS6KA4): 78%; remaining activity at 0.005 µM (STK38L/NDR2): 29%; % enzymatic activity relative to DMSO controls (LATS1): 22%; remaining activity at 0.005 µM (p70S6K/RPS6KB1): 38%; remaining activity at 0.005 µM (MUSK): 85%; % enzymatic activity relative to DMSO controls (JAK1): 82%; remaining activity at 0.005 µM (CDK9/cyclin T2): 74%; % enzymatic activity relative to DMSO controls (AKT1): 78%; % enzymatic activity relative to DMSO controls (PKMYT1): 77%; remaining activity at 0.005 µM (CAMKK1): 83%; remaining activity at 0.005 µM (HGK/MAP4K4): 85%; % enzymatic activity relative to DMSO controls (TYK2): 78%; remaining activity at 0.005 µM (IKKb/IKBKB): 86%; % enzymatic activity relative to DMSO controls (PKN3/PRK3): 64%; YAP/TAZ dephosphorylation and ERα reduction (immunoblot) [1]: dose-dependently induces YAP/TAZ dephosphorylation and ERα reduction; remaining activity at 0.005 µM (SNRK): 86%; remaining activity at 0.005 µM (FER): 78%; IC50 (4T1 cells; Mus musculus, 4T1 cells, n = 2, read-out: Cell viability inhibition IC50): > 10 µM; growth of ER negative breast cancer cells 4T1 (cell viability) (4T1 cells; increasing concentrations of VT02956, Supplementary Fig. 8g): does not inhibit the growth
